# Legend:
# [1] = system: GABAA, Flunitrazepam, Central; assay: Radioligand binding assay No. 226600; settings: test substance 10 μM; rat
# Adenosine A3 = Adenosine A3 (Homo sapiens (Human), UniProt P0DMS8); assay: Radioligand binding assay No. 200720; settings: test substance 10 μM, read-out: Inhibitory rate (%), Adenosine A3
# Cannabinoid CB1 = Cannabinoid CB1 (Homo sapiens (Human), UniProt P21554); assay: Radioligand binding assay No. 217030; settings: test substance 10 μM, read-out: Inhibitory rate (%), Cannabinoid CB1
# Chain of Cannabinoid CB1 (P21554 whole entry): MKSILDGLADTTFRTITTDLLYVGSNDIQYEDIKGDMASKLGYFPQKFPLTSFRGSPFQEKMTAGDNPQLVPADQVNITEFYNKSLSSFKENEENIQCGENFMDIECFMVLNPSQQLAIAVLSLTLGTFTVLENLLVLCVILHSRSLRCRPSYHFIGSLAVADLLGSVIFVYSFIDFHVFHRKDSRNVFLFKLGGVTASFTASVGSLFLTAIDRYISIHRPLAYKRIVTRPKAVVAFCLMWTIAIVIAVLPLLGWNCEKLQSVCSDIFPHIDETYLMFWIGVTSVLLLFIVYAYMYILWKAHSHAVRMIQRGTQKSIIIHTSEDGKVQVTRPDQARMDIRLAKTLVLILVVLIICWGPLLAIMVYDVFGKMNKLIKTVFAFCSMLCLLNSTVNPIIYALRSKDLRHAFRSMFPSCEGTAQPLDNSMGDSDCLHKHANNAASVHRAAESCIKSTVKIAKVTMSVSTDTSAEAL
# PKACa = PKACa (Homo sapiens (Human), UniProt P17612); assay: Kinase selectivity, Mobility shift assay; format: biochemical
# Method: (§1) Object: In this assay, the inhibitory activity of the test substance on the kinases listed in Table 3 was determined, and therefore the selectivity of the present compound was determined.
# (§2) Except for the BRAF V600E kinase in Table 3, the Mobility shift assay was used for other kinases.
# (§3) 1. Preparation of Agents:
# (§4) • 1.1 1-fold kinase buffer without MnCl2: 50 mM HEPES, pH 7.5, 0.0015% Brij-35, 10 mM MgCl2, 2 mM DTT. • 1.2 1-fold kinase buffer with MnCl2: 50 mM HEPES, pH 7.5, 0.0015% Brij-35, 10 mM MgCl2, 10 mM MnCl2, 2 mM DTT. • 1.3 Termination solution: 100 mM HEPES, pH 7.5, 0.0015% Brij-35, 0.2% Coating Reagent#3, 50 mM EDTA. • 1.4 2.5-fold kinase solution: The kinase was added to the 1-fold kinase buffer to form a 2.5-fold kinase solution. • 1.5 2.5-fold substrate solution: FAM fluorescence-labelled polypeptide and ATP were added to the 1-fold kinase buffer to form a 2.5-fold substrate solution. 2. Preparation of 5-fold compound
# (§5) The final test concentration of the compound was 10 μM at maximum. Firstly, a 50-fold concentration (i.e. 500 μM) was prepared with 100% DMSO. The compound was diluted with 100% DMSO by 5 folds at 5 concentrations (successively 500 μM, 100 μM, 20 μM, 4 μM, and 0.8 μM). After diluting with 1-fold kinase buffer by 10 folds, 5 μl of the samples were transferred to a 384-well reaction plate. Two negative control wells and two positive control wells were set at each line respectively. Replication was made in a 96-well plate in five concentrations of 5-fold compound. 10% DMSO was added to the positive control well, and 5 μl of EDTA (250 mM) was added to the negative control well.
# (§6) • 3.1 To the 384-well reaction plate was added 5-fold compound dissolved in 10% DMSO at 5 μl/well. • 3.2 To the 384-well reaction plate was added 2.5-fold kinase solution at 10 μl/well. […] 4. […] 2. […] 3. […] 4.
# AXL = AXL (Homo sapiens (Human), UniProt P30530); assay: Kinase selectivity, Mobility shift assay; format: biochemical
# Chain of AXL (P30530 26-894, species assumed): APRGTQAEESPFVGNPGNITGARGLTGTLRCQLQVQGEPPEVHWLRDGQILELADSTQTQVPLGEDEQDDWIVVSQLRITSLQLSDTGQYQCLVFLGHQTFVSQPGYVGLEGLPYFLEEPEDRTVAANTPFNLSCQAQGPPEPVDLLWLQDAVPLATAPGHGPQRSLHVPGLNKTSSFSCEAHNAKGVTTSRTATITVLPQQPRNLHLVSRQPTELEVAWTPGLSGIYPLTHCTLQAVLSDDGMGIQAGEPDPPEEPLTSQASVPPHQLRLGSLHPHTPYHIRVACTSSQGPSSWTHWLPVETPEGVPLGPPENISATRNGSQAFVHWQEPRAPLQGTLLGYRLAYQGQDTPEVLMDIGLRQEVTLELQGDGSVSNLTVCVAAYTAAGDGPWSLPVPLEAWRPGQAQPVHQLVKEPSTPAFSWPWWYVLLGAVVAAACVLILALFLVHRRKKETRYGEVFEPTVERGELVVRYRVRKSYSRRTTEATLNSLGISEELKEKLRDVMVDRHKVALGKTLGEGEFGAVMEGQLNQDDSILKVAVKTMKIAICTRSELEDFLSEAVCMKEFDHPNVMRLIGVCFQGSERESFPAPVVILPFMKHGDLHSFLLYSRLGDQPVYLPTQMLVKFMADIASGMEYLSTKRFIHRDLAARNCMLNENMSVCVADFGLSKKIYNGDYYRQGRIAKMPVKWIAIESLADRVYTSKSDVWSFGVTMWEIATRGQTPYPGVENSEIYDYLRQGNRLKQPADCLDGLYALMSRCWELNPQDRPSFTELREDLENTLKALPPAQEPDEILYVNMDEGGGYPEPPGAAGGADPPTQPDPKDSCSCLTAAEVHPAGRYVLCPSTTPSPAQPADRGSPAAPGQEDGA
# Method: as §1, §2, §3, §4, §5, §6
# RSK2 = RSK2 (Homo sapiens (Human), UniProt P51812); assay: Kinase selectivity, Mobility shift assay; format: biochemical
# Chain of RSK2 (P51812 whole entry, species assumed): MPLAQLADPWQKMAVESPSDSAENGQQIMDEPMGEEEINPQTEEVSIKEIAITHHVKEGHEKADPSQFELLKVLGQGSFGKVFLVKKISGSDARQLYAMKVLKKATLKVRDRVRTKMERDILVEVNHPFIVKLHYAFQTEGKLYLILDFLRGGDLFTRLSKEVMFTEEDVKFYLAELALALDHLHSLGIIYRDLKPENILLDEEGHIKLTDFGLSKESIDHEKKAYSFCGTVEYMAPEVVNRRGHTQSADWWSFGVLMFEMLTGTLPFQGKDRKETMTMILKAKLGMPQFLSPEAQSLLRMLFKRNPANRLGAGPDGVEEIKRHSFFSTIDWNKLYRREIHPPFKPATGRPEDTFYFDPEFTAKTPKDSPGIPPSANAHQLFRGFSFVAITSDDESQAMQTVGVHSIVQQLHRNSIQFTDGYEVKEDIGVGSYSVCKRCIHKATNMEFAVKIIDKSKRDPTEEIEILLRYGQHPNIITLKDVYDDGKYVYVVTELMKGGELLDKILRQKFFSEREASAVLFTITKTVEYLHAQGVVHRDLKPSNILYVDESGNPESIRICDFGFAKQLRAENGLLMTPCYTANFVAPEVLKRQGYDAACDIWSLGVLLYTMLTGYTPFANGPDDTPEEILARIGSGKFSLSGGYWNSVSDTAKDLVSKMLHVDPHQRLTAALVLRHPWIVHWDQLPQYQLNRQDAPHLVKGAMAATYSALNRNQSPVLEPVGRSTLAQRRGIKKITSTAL
# Method: as §1, §2, §3, §4, §5, §6
# EphA1 = EphA1 (Homo sapiens (Human), UniProt P21709); assay: Kinase selectivity, Mobility shift assay; format: biochemical
# Chain of EphA1 (P21709 26-976, species assumed): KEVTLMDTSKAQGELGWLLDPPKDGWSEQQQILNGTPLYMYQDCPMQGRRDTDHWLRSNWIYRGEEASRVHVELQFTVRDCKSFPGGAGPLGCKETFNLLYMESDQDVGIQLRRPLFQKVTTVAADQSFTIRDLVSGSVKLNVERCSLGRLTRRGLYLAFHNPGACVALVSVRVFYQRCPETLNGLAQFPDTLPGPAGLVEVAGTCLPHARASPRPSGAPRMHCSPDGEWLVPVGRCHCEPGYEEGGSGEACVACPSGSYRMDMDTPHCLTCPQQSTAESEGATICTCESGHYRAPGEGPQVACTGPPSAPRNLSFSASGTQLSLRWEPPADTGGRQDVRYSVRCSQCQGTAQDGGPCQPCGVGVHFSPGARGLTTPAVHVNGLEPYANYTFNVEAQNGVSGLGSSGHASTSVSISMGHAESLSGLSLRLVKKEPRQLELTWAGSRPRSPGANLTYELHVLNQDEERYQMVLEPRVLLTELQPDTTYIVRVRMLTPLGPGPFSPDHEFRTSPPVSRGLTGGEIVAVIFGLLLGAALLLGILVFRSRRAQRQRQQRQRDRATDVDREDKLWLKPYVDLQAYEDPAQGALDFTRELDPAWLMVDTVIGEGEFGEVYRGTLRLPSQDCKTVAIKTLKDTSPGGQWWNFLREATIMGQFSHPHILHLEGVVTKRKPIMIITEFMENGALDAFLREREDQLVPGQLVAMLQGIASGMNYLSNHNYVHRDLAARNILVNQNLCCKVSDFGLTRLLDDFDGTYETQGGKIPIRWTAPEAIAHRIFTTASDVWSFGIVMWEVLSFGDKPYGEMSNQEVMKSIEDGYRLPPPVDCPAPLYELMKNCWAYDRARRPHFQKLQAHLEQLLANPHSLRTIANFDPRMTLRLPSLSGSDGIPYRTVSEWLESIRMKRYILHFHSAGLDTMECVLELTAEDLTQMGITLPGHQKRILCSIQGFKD
# Method: as §1, §2, §3, §4, §5, §6
# ERK2 = ERK2 (Homo sapiens (Human), UniProt P28482); assay: Kinase selectivity, Mobility shift assay; format: biochemical
# Chain of ERK2 (P28482 whole entry, species assumed): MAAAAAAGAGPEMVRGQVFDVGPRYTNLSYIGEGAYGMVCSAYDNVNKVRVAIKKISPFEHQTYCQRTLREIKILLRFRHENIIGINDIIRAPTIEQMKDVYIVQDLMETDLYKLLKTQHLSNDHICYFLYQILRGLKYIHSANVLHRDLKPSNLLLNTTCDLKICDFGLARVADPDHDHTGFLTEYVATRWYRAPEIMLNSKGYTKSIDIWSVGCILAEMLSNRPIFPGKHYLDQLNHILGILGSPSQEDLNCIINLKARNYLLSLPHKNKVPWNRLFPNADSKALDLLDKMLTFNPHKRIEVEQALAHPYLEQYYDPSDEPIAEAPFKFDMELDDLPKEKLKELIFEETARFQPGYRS
# Method: as §1, §2, §3, §4, §5, §6
# SKOV-3 = assay: In vitro cytological inhibitory activity (XTT); format: cell-based; settings: Homo sapiens, SK-OV-3, 72 hrs
# Method: SKOV-3: Human ovarian cancer cell line;
# 1. Preparation of agents and compounds:
# • 1.1 Preparation of phosphoric acid buffering solution (PBS): 8 g NaCl, 0.2 g KCl, 1.44 g Na2HPO4 and 0.24 g KH2PO4 were weighed and added to 800 mL ultrapure water. The mixture was adjusted to pH=7.4, and ultrapure water was added to the metered volume of IL. Then the autoclaving was conducted for 20 mins. • 1.2 Preparation of XTT detection working solution: 100 mg (2,3-Bis-(2-methoxy-4-nitro-5-sulfophenyl)-2H-tetrazolium-5-carboxanilide); 2,3-bis(2-methoxy-4-nitro-5-sulfophenyl)-5-[(phenylamino)carbonyl]-2H-tetrazolium hydroxide (XTT) powder was weighed, and dissolved under protection from light 300 mL of phenol red-free and serum-free RPMI1640 culture, which had been warmed up to 50° C. The resulting mixture was filtered, packaged and used immediately or in one week. The complete process was conducted under protection from light. • 1.3 Preparation of the test compound • Preparation of the stock solution of the test compound: The test compound powder was dissolved in DMSO in a concentration of 10 mM. • Preparation of the gradiently diluted solution of the test compound: 10 mM of the stock solution of the test compound was successively and gradiently diluted with DMSO by 4 folds for 10 concentrations. […]
# Chain of Adenosine A3 (P0DMS8 whole entry): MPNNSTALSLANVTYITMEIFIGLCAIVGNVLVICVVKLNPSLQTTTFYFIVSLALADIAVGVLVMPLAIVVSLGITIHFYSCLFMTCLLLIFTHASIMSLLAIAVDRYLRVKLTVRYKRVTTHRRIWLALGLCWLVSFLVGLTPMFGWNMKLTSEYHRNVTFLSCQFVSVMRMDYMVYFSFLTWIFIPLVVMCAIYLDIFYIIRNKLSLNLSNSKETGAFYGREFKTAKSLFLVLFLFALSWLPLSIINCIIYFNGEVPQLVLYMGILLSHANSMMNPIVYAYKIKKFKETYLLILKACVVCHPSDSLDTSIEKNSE
IC50 (SKOV-3),SMILES,"Inhibitory rate (%), GABAA, Flunitrazepam, Central [1]",inhibition at 10 µM (Adenosine A3),inhibition at 10 µM (Cannabinoid CB1),IC50 (PKACa),IC50 (AXL),IC50 (RSK2),IC50 (EphA1),IC50 (ERK2)
–,"Nc1ccc(-c2ccc3ncc4c(=O)[nH]c(=O)n(-c5cccc(C(F)(F)F)c5)c4c3n2)cn1 [Compound 5, 9-(6-aminopyridin-3-yl)-1-(3-(trifluoromethyl)phenyl)pyrimido[5,4-c][1,5]naphthyridine-2,4(1H,3H)-dione]",34%,11%,25%,> 10000 nM,2140 nM,> 10000 nM,1470 nM,> 10000 nM
57.2 nM,"O=c1[nH]c(=O)n(-c2cccc(C(F)(F)F)c2)c2c1cnc1ccc(-c3cnc4[nH]ccc4c3)nc12 [Compound 30, 9-(1H-pyrrolo[2,3-b]pyridin-5-yl)-1-(3-(trifluoromethyl)phenyl)pyrimido[5,4-c][1,5]naphthyridine-2,4(1H,3H)-dione]",–,–,–,–,–,–,–,–
